Some test systems named below: NCI-H23; HL-60; LOX IMVI; OVCAR-4; SNB-75; A498; U-251; PC-3; 786-0; OVCAR-5; COLO 205; HCC 2998; RPMI-8226; NCI-H226; M14; T47D; Malme-3M; SR; Hs-578T.
Experiment in all cases: NCI tumour cell line growth inhibition, 48 h

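All cell lines were grown in 96-well plates and treated with compound for 48 hours. GI50: concentration for 50% inhibition of growth.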 Calls of active or inactive are those of the source. No stated cut-off is given here; in the data, active = GI50 up to about 1.1 µM and inactive = higher.

In the case of `C=C(C(=O)OC)[C@H]1CC/C(C)=C/CC/C(C)=C/CC[C@@]2(C)O[C@@H]2C1`, the GI50 in the assay on NCI-H23 is 19.3 µM (inactive); with HL-60, 13 µM (inactive); with LOX IMVI, 15.5 µM (inactive); with OVCAR-4, 26.8 µM (inactive); in the assay on SNB-75 it was 65.2 µM (inactive); in the assay on A498 it was 22.1 µM (inactive). Also, the GI50 was 20.1 µM (inactive) in the assay on U-251; 18 µM (inactive) in the assay with PC-3; 15.5 µM (inactive) in the assay on 786-0; 23.4 µM (inactive) in the assay on OVCAR-5; 15 µM (inactive) with COLO 205; 16 µM (inactive) in the assay on HCC 2998. Further, the GI50 in the assay on RPMI-8226 was 14.4 µM (inactive); in the assay with NCI-H226, 19.9 µM (inactive); in the assay on M14, 21.9 µM (inactive); in the assay with T47D it was 16.3 µM (inactive); in the assay on Malme-3M, 25.1 µM (inactive).

For the compound `C[C@@H](CO)C1=CC(C#C[Si](C)(C)C)N(C(=O)Oc2ccccc2)c2ccccc21` (stereo partly specified), the GI50 with NCI-H23 is 6.75 µM (inactive); in the assay with SR, 5.65 µM (inactive); in the assay with HL-60, 17.1 µM (inactive); in the assay on LOX IMVI, 17.6 µM (inactive); with OVCAR-4, 12.6 µM (inactive); in the assay on SNB-75 it was 10.1 µM (inactive). For the same compound, the GI50 in the assay on U-251 was 18.3 µM (inactive); in the assay with PC-3 it was 19.6 µM (inactive); in the assay on 786-0 it was 17.2 µM (inactive); in the assay with OVCAR-5, 19.8 µM (inactive); in the assay with COLO 205, 23.8 µM (inactive); with HCC 2998, 15.2 µM (inactive). Moreover, the GI50 with RPMI-8226 is 24.9 µM (inactive); in the assay on NCI-H226 it was 20 µM (inactive); in the assay with M14, 16.3 µM (inactive); with T47D it was 18.2 µM (inactive); in the assay on Hs-578T it was 25.1 µM (inactive).

As for `O=C1/C(=N\O)S(=O)(=O)c2ccccc21`, the GI50 in the assay on SR, in the assay with HL-60, in the assay on LOX IMVI, in the assay on OVCAR-4, with SNB-75 and with A498 was > 100 µM (inactive) in each case. In addition, the GI50 in the assay on U-251, with 786-0, in the assay on OVCAR-5, in the assay on COLO 205, in the assay with HCC 2998 and with RPMI-8226 was > 100 µM (inactive) in each case. The GI50 with NCI-H226, in the assay on M14 and with Malme-3M was > 100 µM (inactive) each time.

`COC1=CC(=O)c2c(cc3c(c2O)-c2c(OC)cc4cc5c(c(O)c4c2OC(=O)CC(C)(O)C3)C(=O)CC(C)(O)C5)C1=O` (stereo unspecified): the GI50 is 0.624 µM (active) in the assay with NCI-H23; 2.02 µM (inactive) in the assay on SR; 1.34 µM (inactive) with HL-60; 1.22 µM (inactive) in the assay with LOX IMVI; 3.15 µM (inactive) with OVCAR-4; 1.29 µM (inactive) in the assay on SNB-75. The GI50 in the assay on A498 was 2.48 µM (inactive); in the assay with U-251, 2.77 µM (inactive); in the assay with 786-0 it was 2.65 µM (inactive); with OVCAR-5, 2.14 µM (inactive); in the assay on COLO 205 it was 1.57 µM (inactive); in the assay with HCC 2998 it was 1.24 µM (inactive). Moreover, the GI50 in the assay with RPMI-8226 is 1.32 µM (inactive); with NCI-H226, 1.84 µM (inactive); with M14 it was 1.25 µM (inactive); with Malme-3M, 1.82 µM (inactive).

Turning to `CC(O)[C@@]1(c2ccccc2)CC2(CCN(C)CC2)O[C@H]1C` (stereo partly specified), the GI50 with NCI-H23 was > 100 µM (inactive); in the assay with SR, > 100 µM (inactive); with HL-60, 26.2 µM (inactive); with LOX IMVI it was > 100 µM (inactive); in the assay on OVCAR-4, 98.6 µM (inactive); in the assay with SNB-75, > 100 µM (inactive). In addition, the GI50 with A498, in the assay on U-251, in the assay with PC-3, in the assay on 786-0, in the assay on OVCAR-5 and with COLO 205 was > 100 µM (inactive) each time. Further, the GI50 with HCC 2998 is > 100 µM (inactive); in the assay on RPMI-8226, > 100 µM (inactive); with NCI-H226 it was > 100 µM (inactive); in the assay with M14, > 100 µM (inactive); in the assay on T47D, 33.9 µM (inactive); in the assay with Hs-578T, > 100 µM (inactive). Also, the GI50 with Malme-3M was > 100 µM (inactive).

Take `Cc1cc(C)c(-c2no/c(=N\S(=O)(=O)c3ccc(Cl)cc3)o2)c(C)c1`: the GI50 was > 100 µM (inactive) in the assay on NCI-H23; 24.7 µM (inactive) with SR; 42.1 µM (inactive) with HL-60; > 100 µM (inactive) in the assay with OVCAR-4; > 100 µM (inactive) in the assay on SNB-75; > 100 µM (inactive) in the assay with A498. The GI50 is > 100 µM (inactive) in the assay with U-251; > 100 µM (inactive) in the assay with PC-3; > 100 µM (inactive) in the assay on 786-0; > 100 µM (inactive) in the assay on OVCAR-5; 41.4 µM (inactive) in the assay on COLO 205; > 100 µM (inactive) with HCC 2998. In addition, the GI50 was 37.2 µM (inactive) with RPMI-8226; > 100 µM (inactive) in the assay on NCI-H226; > 100 µM (inactive) in the assay on M14; 93.3 µM (inactive) in the assay with T47D; > 100 µM (inactive) in the assay on Hs-578T; 75 µM (inactive) with Malme-3M.

For the compound `Cc1cc(=O)cc2sc3cc(Cl)ccc3nc1-2`, the GI50 in the assay on NCI-H23 is 13.7 µM (inactive); with SR, 3.07 µM (inactive); in the assay on HL-60, 2.66 µM (inactive); in the assay with LOX IMVI, 11.9 µM (inactive); in the assay on OVCAR-4, 22.2 µM (inactive); with SNB-75, 3.24 µM (inactive). Moreover, the GI50 with A498 is 19.9 µM (inactive); in the assay on U-251, 6.53 µM (inactive); in the assay with 786-0 it was 12 µM (inactive); in the assay on OVCAR-5, 21.1 µM (inactive); in the assay with COLO 205, 22.3 µM (inactive); in the assay with HCC 2998, 10.5 µM (inactive). Further, the GI50 in the assay on RPMI-8226 was 5.87 µM (inactive); in the assay with NCI-H226, 25.4 µM (inactive); in the assay on M14, 4.4 µM (inactive); with Malme-3M, 11.5 µM (inactive).

Consider `C=CCOC(=O)Cn1ccc(=O)[nH]c1=O`, for which the GI50 in the assay with NCI-H23, in the assay on SR, with HL-60, in the assay on LOX IMVI, in the assay with SNB-75 and in the assay with A498 was > 100 µM (inactive) each time. In addition, the GI50 in the assay on U-251, in the assay with PC-3, in the assay on 786-0, with OVCAR-5, in the assay on COLO 205 and with HCC 2998 was > 100 µM (inactive) each time. Also, the GI50 in the assay on RPMI-8226, in the assay on NCI-H226, in the assay on M14, in the assay with T47D, with Hs-578T and in the assay on Malme-3M was > 100 µM (inactive) throughout.

With `Cc1ccc(C(=O)/C=C/c2cccc([N+](=O)[O-])c2)cc1`, the GI50 in the assay with NCI-H23 was > 74.5 µM (inactive); with SR it was 18.6 µM (inactive); with HL-60 it was 36.6 µM (inactive); with LOX IMVI it was 66.4 µM (inactive); in the assay with OVCAR-4, 46.9 µM (inactive); in the assay with SNB-75, > 47.3 µM (inactive). Also, the GI50 was 98.2 µM (inactive) in the assay on A498; 22.2 µM (inactive) with U-251; 28.4 µM (inactive) in the assay on 786-0; > 40.7 µM (inactive) with COLO 205; > 54.7 µM (inactive) with HCC 2998; 26.6 µM (inactive) in the assay with RPMI-8226. In addition, the values for the GI50 in the assay with NCI-H226, in the assay with M14 and in the assay on Malme-3M were > 58.7 µM (inactive), 98.6 µM (inactive) and > 100 µM (inactive), respectively.

Consider `O=C(O)CCC(c1ccccc1)(c1ccccc1)c1ccccc1`, for which the GI50 with NCI-H23 was 34.4 µM (inactive); in the assay with SR, 31.6 µM (inactive); in the assay on HL-60 it was 37.2 µM (inactive); in the assay with LOX IMVI, 45.1 µM (inactive); in the assay with OVCAR-4 it was 34.5 µM (inactive); with A498 it was 41.4 µM (inactive). Besides, the GI50 in the assay with U-251 is 39 µM (inactive); with PC-3, 33 µM (inactive); in the assay on 786-0, 62.2 µM (inactive); in the assay with OVCAR-5 it was > 100 µM (inactive); in the assay with COLO 205, 24.7 µM (inactive); with HCC 2998 it was 32.4 µM (inactive). For the same compound, the GI50 is 27 µM (inactive) with RPMI-8226; 88.5 µM (inactive) with NCI-H226; 33 µM (inactive) in the assay with M14; 0.647 µM (active) in the assay with T47D; 29.9 µM (inactive) in the assay on Hs-578T; > 100 µM (inactive) with Malme-3M.

On to `COC(=O)C1C=CCON2CCc3c(n(C)c4ccccc34)C12` (stereo unspecified), for which the GI50 was > 100 µM (inactive) with NCI-H23; > 100 µM (inactive) in the assay with SR; > 100 µM (inactive) with HL-60; > 100 µM (inactive) in the assay with LOX IMVI; > 100 µM (inactive) with OVCAR-4; 88.1 µM (inactive) with SNB-75. The GI50 was 46.6 µM (inactive) with A498; > 100 µM (inactive) with U-251; > 100 µM (inactive) in the assay on 786-0; > 100 µM (inactive) in the assay on OVCAR-5; > 100 µM (inactive) with COLO 205; > 100 µM (inactive) in the assay on HCC 2998. In addition, the GI50 in the assay with RPMI-8226, in the assay with NCI-H226, in the assay with M14 and in the assay with Malme-3M was > 100 µM (inactive) in each case.

As to `O=c1c(C(c2ccco2)c2c(O)oc3ccccc3c2=O)c(O)oc2ccccc12`, the GI50 with NCI-H23 was > 100 µM (inactive); in the assay with HL-60, 67.5 µM (inactive); in the assay with LOX IMVI, 28.2 µM (inactive); with OVCAR-4, 70.8 µM (inactive); with SNB-75, 28.1 µM (inactive); with A498 it was > 100 µM (inactive). Further, the GI50 is 27.2 µM (inactive) with U-251; > 100 µM (inactive) with PC-3; 25.1 µM (inactive) in the assay with 786-0; 22.3 µM (inactive) in the assay with COLO 205; 26.5 µM (inactive) in the assay on HCC 2998; 26.1 µM (inactive) with RPMI-8226. The GI50 in the assay on NCI-H226 is 64.9 µM (inactive); with T47D, 43.3 µM (inactive); in the assay with Hs-578T it was 51.1 µM (inactive); in the assay on Malme-3M, 20.5 µM (inactive).

For the origin of these results see ChEMBL document CHEMBL1201862, “PubChem BioAssay data set” (2004).
